The record followed here is EPA's ToxValDB 9.5 (doi:10.2903/j.efsa.2020.6151).

Molecules are shown by their SMILES. A value given as a limit tells only on which side of the number the result lay.

The subject of one data set is Colinus virginianus. The conditions noted are these: for LD50: acute, oral, mortality.
For a further data set, the system named is Folsomia candida. Conditions: chronic/long-term; duration: 28 days; reproduction.
The next data set deals with Apis mellifera. Conditions: acute, mortality.
A further data set deals with Daphnia magna. The conditions noted are these: chronic/long-term; duration: 21 days; other.
In a further data set the test system is Bibionidae. Conditions: chronic/long-term; duration: 28 days; seedling emergence.
The next data set concerns Pimephales promelas. The conditions noted are these: chronic/long-term; duration: 33 days; other.
The test system of a further data set is Typhlodromus pyri. The data set is described as follows: LR50; higher = less toxic. The conditions noted are these: not reported; mortality.

Turning to `C#CCOC(=O)[C@@H](C)Oc1ccc(Oc2ncc(Cl)cc2F)cc1` [Clodinafop-propargyl], the LD50 in the data set with Colinus virginianus (duration: 5 days, diet) was > 1040 mg/kg-day; in the data set on Colinus virginianus, 1460 mg/kg; in the data set on Apis mellifera (dermal), > 100 µg/piece; in the data set on Apis mellifera (oral, unspecified), > 104 µg/piece; with Rattus norvegicus (acute, oral, mortality), > 1390 mg/kg. The NOEC in the data set with Colinus virginianus (reproduction developmental) was 48.9 mg/kg-day; with Folsomia candida, 1.6 mg/kg; in the data set on Daphnia magna, 0.23 mg/L; with Bibionidae, 1.2 mg/L; in the data set with Pimephales promelas it was 0.024 mg/L. Further, the NOAEL in the data set on Rattus norvegicus (chronic, duration: 2 years, M, histopathology: neoplastic) was found to be 0.03 mg/kg-day; in the data set with Rattus norvegicus (developmental, development), 5 mg/kg-day; in the data set on Rattus norvegicus (reproduction developmental, body weight), 3.4 mg/kg-day; with Rattus norvegicus (subchronic, duration: 90 days, organ weight), 0.92 mg/kg-day. In the data set on Typhlodromus pyri, the LR50 was > 90 g/ha.
